Laboratory results reported in US20110262395A1, “SENSORY RECEPTORS FOR CHRONIC FATIGUE AND PAIN AND USES THEREOF” (UNIVERSITY OF UTAH RESEARCH FOUNDATION, priority 2008, published 2011).
Several values for one entry are separate records, joined by “and”; a condition that tells them apart may be missing. Equal entries are not always repeated. Entries after “also recorded” stand apart in the source; their conditions may differ.

Tests used:
[1] = tested on: DRG neurons; assay: Calcium imaging of cultured DRG neurons: percent of neurons responding to applied metabolites or capsaicin; type: cell-based, mouse; conditions: 200 nM
From the text: (§1) Harvesting/culturing cells/loading cells: Thirty-nine three week old (4 wells of DRG neurons plated from each mouse), C57Bl/6 mice were anesthetized with isoflurane, and euthanized by cervical dislocation. Dorsal root ganglia (DRG) from lumbar regions were removed into HBSS, treated with trypsin, washed with MEM (Invitrogen 51200-038) containing 10% FBS (Hyclone), 2.4% glucose, 1% glutamax (Invitrogen 35050-061) and 1% penicillin/streptomycin (Atlanta Biological B2110). DRG were triturated, pre-plated and incubated at 37° C. for one hour to reduce non-neuronal cells. Neurons were gently swirled and centrifuged (110×g, 5 min). Cells were removed, re-suspended and 30 μL plated onto the 4 center wells of 24-well plates coated with poly-L-lysine and laminin. A 0.5 mm thick silicone ring with a 4 mm diameter opening sealed to the surface of each well reduced the plating area in each well. Following 1 hour, wells were filled with 37° C. culture medium with 10 ng/mL GDNF (Glial Derived Neurotrophic Factor) (Preprotech 450-10). Sixteen to 23 hours after plating, cultures were loaded with Fura-2 AM (Molecular Probes F-1221) fluorescent dye for 40-60 minutes, then washed with pH 7.4 oxygenated observation medium containing no additional ATP (145 mM NaCl, 5 mM KCl, 2 mM CaCl2, 1 mM MgCl2, 1 mM Citrate, 10 mM glucose, 10 mM MES, 10 mM HEPES). The final well volume was 500 μL.
Choice and concentrations of metabolites: Because the afferent receptors in muscle have been reported to be on the outside of blood vessels supplying muscle, values obtained for muscle interstitium from experiments using cat, rat, and human for muscle contraction evoked by mild to moderate to extreme exercise were used.
Protons (pH): Values between 7.6 and 6.2 were used spanning the range found in skeletal and cardiac muscle in mammals from above resting values to those found with injury and disease.
Lactate: 1-50 mM lactate was used, a range of values that spans from rest to ischemia in muscles of humans and rats and mice.
ATP: ATP concentrations in muscle interstitium increase from 300 nM at rest to 5 μM with ischemic muscle contraction (Hellsten et al., 1998; Li et al., 2003; Li et al., 2005). These levels were used in the experiments described below. […] To allow for physiological levels of desensitization of possible P2X receptors, freshly prepared ATP at 300 nM was used for at least 30 seconds before any further increases in ATP combined with other metabolites, to establish resting conditions in DRG neurons in these experiments. […] Also used were pH 6.0 and 4.0 without additional increases in metabolites to confirm that the imaging experiments could replicate recent reports using patch-clamp techniques (Leffler et al., 2006).
(§2) Combinations of metabolites applied to mimic naturally occurring conditions: When applied in an escalating series to mimic increases in metabolites that occur with muscle exercise and ischemic muscle exercise, the metabolite values shown in Table 1 were used. The values associated with pH 7.6 are at or below those normally found at rest in the mouse. The values at 7.4 approximate those found at rest. Generally, the low metabolite values associated with pH higher than 7.0 are likely to be non-noxious, while higher metabolite values at pH 7.0 and lower may be associated with pain. These values should bracket the physiological range of metabolites found in skeletal muscle with the last two values (those associated with 6.4 and 6.2) being higher than the physiological range (Bangsbo et al., 1993; Bangsbo et al., 2001; Li et al., 2003; Li et al., 2005; Reeh and Kress, 2001; Steinhagen et al., 1976).
Di-I labeling: In some experiments, neurons were identified as innervating muscle by prior muscle labeling with Di-I. Twelve 7-9 day old mice were anesthetized by cooling. […]

[2] = tested on: DRG neurons; conditions: patch-clamp, previous reports; cited from earlier work
[3] = target: P2X5 receptors (Homo sapiens, UniProt Q93086); conditions: cited from earlier work
[4] = target: T1, P2X3 receptors (Homo sapiens, UniProt P56373); conditions: cited from earlier work
T1 sequence (P56373 1-397): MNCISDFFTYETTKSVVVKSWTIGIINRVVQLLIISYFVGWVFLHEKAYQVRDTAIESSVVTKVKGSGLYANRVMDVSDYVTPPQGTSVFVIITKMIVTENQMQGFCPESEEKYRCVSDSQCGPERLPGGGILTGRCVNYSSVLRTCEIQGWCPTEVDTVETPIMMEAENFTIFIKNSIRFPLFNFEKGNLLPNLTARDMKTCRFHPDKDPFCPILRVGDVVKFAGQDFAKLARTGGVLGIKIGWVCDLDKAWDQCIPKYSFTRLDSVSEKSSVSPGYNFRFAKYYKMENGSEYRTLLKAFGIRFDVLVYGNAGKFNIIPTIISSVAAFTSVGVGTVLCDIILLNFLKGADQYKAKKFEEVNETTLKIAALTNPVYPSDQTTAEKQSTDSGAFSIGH

[5] = tested on: DRG neurons; assay: Calcium imaging of cultured DRG neurons: antagonist effects on responses to increasing metabolites (protons, lactate, ATP); type: cell-based, mouse
From the text: as §1, §2
(§3) JYL-1422, LJO-328, A-317567, and a selected stereo isomer of A-317567 were each dissolved in 5% DMSO/95% water and a few μL of 1M HCl to a concentration of 10 mM, then quick frozen and stored at −20° C. Aliquots of antagonists were thawed and diluted to the appropriate concentrations just prior to use in the experiments. The strong buffers maintained the pH of these antagonists when mixed with metabolites.
(§4) Imaging procedure: All experiments were performed at room temperature (20-25° C.) to allow correspondence with most previous experiments using calcium imaging and patch clamp of DRG neurons. Cells were imaged using the Meta Imaging Series Metafluor program (Universal Imaging Corp). All cells identifiable as neurons based on their round shape, clear, single nucleus, were selected from a phase image of the field. At the end of each experiment, 200 nM capsaicin was applied, followed by a wash, and then applied 50 mM KCl. Capsaicin activation indicated the presence of TRPV1 receptors on neurons, and KCl ensured that recorded objects were active neurons, and established the maximal calcium response in each neuron. For some neurons the administration of capsaicin abolished the potential for responding to KCl, thus either a response to capsaicin or to KCl indicated viability of neurons, and only viable neurons were included in analyses.
For each field an average of 151+10 cells were tracked real-time. […] FIGS. 1 and 2 show traces from these graphs. […]

[6] = target: T2, mouse P2X4 receptors (Mus musculus, UniProt Q9JJX6); conditions: cited from earlier work
T2 sequence (Q9JJX6 1-388): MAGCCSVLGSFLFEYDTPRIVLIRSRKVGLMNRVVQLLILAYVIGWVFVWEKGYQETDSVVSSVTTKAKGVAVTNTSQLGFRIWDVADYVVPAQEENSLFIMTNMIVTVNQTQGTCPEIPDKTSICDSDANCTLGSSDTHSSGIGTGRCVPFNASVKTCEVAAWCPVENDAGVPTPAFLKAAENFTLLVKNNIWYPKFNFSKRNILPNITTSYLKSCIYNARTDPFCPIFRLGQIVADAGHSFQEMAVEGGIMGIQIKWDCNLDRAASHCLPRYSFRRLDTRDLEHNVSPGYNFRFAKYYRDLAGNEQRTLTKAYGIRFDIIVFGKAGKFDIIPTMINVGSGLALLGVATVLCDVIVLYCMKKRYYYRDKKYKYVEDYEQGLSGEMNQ

[7] = tested on: DRG neurons; assay: Calcium imaging of cultured DRG neurons: antagonist effects on responses to capsaicin, ATP or KCl (selectivity control); type: cell-based, mouse
From the text: as §1, §3, §4
For each field an average of 151+10 cells were tracked real-time. […]

[8] = target: TRPV1 receptors (Mus musculus, UniProt Q704Y3); conditions: cited from earlier work
[9] = tested on: ASIC receptor; conditions: cited from earlier work
[10] = target: T3, ASIC3 (Homo sapiens, UniProt Q9UHC3); conditions: pH 7.0; cited from earlier work
T3 sequence (Q9UHC3 1-531): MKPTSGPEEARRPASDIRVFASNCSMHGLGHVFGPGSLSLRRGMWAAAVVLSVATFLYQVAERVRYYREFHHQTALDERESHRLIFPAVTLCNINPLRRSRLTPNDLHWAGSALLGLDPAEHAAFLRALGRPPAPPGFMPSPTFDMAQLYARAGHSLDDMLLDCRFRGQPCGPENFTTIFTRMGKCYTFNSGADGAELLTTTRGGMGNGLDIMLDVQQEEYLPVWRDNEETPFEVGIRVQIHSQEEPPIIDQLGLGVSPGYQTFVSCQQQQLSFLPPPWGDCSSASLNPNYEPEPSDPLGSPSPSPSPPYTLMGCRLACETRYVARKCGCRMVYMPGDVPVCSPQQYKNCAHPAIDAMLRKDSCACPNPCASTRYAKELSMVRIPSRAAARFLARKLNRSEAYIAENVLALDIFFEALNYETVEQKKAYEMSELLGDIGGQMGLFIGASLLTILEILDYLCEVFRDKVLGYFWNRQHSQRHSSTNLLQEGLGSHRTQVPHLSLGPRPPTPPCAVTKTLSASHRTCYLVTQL

[11] = target: TRPV1 (Homo sapiens, UniProt Q8NER1); conditions: cited from earlier work
Chain of TRPV1 (Q8NER1 whole entry, species assumed): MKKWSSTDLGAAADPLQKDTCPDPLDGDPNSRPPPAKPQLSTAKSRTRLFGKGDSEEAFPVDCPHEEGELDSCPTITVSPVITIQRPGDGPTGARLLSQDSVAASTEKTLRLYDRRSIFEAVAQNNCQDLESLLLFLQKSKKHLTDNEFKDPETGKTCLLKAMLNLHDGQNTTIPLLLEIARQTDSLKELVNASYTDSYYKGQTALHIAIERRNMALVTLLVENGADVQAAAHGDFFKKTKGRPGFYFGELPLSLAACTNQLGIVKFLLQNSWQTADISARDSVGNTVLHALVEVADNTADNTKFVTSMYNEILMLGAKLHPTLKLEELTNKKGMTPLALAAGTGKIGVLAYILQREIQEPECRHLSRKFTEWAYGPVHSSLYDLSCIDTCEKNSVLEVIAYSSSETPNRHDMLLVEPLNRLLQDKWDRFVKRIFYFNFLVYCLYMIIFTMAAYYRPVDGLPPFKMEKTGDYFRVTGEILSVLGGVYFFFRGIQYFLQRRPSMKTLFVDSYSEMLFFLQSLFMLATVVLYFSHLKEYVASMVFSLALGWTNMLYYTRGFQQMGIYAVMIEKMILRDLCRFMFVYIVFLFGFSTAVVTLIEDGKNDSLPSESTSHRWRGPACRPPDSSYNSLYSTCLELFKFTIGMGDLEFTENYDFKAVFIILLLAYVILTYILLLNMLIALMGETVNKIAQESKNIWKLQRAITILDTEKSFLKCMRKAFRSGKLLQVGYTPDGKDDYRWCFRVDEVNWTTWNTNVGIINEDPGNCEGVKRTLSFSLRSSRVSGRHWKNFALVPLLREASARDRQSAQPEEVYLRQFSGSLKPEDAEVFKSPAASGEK

Chain of TRPV1 receptors (Q704Y3 whole entry): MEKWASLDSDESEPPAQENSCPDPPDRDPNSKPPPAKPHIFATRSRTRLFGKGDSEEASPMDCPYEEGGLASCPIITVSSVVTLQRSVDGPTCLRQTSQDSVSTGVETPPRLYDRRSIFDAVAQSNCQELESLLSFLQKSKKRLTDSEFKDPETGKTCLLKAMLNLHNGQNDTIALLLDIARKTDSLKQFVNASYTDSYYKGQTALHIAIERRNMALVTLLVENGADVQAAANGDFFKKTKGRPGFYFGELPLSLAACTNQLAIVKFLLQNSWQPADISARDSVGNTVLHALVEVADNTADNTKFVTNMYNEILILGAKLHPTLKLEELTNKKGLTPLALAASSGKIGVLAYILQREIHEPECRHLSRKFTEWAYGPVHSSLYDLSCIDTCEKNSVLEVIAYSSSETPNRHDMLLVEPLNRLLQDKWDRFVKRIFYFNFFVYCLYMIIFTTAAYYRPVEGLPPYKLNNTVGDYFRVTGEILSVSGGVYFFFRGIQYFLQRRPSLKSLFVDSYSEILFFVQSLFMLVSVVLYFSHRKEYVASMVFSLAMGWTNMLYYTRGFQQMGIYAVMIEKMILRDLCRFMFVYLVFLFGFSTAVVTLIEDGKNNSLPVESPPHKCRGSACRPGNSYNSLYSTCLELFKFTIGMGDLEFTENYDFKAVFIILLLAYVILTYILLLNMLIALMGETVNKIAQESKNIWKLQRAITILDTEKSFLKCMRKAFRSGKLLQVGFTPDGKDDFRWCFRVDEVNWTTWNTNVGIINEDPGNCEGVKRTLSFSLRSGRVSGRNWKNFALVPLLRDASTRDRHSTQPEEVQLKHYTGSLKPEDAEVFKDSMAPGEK
Chain of P2X5 receptors (Q93086 whole entry): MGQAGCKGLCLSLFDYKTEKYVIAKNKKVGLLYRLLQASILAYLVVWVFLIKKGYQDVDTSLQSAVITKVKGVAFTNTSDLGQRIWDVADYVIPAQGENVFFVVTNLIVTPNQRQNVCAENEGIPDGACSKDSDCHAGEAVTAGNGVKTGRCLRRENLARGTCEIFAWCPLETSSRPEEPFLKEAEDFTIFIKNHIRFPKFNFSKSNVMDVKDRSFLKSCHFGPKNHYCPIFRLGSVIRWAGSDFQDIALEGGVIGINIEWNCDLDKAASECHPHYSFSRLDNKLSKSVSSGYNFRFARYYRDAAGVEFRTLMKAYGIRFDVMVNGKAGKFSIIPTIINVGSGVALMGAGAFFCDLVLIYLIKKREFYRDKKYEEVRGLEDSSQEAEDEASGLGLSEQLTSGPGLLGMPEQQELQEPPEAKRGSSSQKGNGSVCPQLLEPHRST

COc1cc(CNC(=O)CCCC/C=C/C(C)C)ccc1O [capsaicin]
percentage of DRG neurons responding with rapid calcium increase ([1]; all DRG neurons): 50.9±4.2% | percentage of DRG neurons responding with rapid calcium increase ([1]; all muscle labeled neurons): 48.8 ± 5.8% | percentage of DRG neurons responding with rapid calcium increase ([1]; metabolite-responding DRG neurons): 71.9 ± 4.2% | percentage of DRG neurons responding with rapid calcium increase ([1]; muscle labeled metabolite responders): 63.4 ± 5.8% | capsaicin responses in DRG neurons, percent [2]: 36% and 20%

TNP-ATP
IC50 [3]: 500 nM | IC50 [4]: 0.31 nM and 0.3 nM | effect on responses to increasing metabolites ([5]; antagonist 10 nM): facilitated responses; also recorded: can increase responses of DRG neurons to increasing metabolites | effect on responses to increasing metabolites ([5]; antagonist 200 μM): blocked nearly all responses to metabolites; also recorded: abolished most responses to increasing metabolites | effect on metabolite responses associated with pH 6.8 and above ([5]; antagonist 1 and 10 μM): had little effect | effect on responses to low metabolites ([5]; antagonist 1 and 10 μM (FIG. 2 legend: 1 μM), metabolites between pH 7.3-7.0): reduced low metabolite responses; also recorded: reduced responses of DRG neurons; also recorded: eliminated most responses to low metabolites | effect on responses to increasing metabolites ([5]; antagonist 200-300 μM, doses effective at all P2X receptors): eliminated nearly all responses to increasing metabolites | effect on responses to metabolites ([5]; antagonist at 10 μM (so in the source), p<0.05): increased responses to metabolites | IC50 [6]: 16000 nM | capsaicin and KCl responses in presence of antagonist ([7]; any dose): unaffected

Oc1cc2c(cc1O)CN(C(=S)NCCc1ccc(Cl)cc1)CCC2 [Capsazepine]
inhibitory action on pH responses of TRPV1 receptors [8]: little inhibitory action

N=C(N)NC(=O)c1nc(Cl)c(N)nc1N [Amiloride]
effect on ASIC receptor responses to low pH [9]: antagonizes all ASIC receptor responses to low pH | effect on ASIC3 responses to moderate pH levels [10]: enhanced

Cc1ccc(CC(CNC(=S)NCc2ccc(NS(C)(=O)=O)c(F)c2)COC(=O)C(C)(C)C)cc1C (centres unmarked) [JYL-1433]
TRPV1 antagonism [11]: potent full antagonists of TRPV1 | responses to KCl application in presence of antagonist ([7]; antagonist 2 μM, 50 mM KCl): remained normal
